# Test results published in ChEMBL document CHEMBL4665709, “Rational Avoidance of Protease Cleavage Sites and Symmetrical End-Tagging Significantly Enhances the Stability and Therapeutic Potential of Antimicrobial Peptides” (J Med Chem, 2020).
# Where a SMILES comes first, the peptide text is derived from it.
# Assays:
# [1] = Therapeutic index, ratio of MHC for human RBC to geometric mean of peptide MIC for Streptococcus agalactiae H92; type: toxicity; conditions: human red blood cells (RBC), read-out: TI
# [2] = Therapeutic index, ratio of MHC for human RBC to geometric mean of peptide MIC for Staphylococcus epidermidis ATCC 12228; type: toxicity; conditions: human red blood cells (RBC), read-out: TI
# [3] = Therapeutic index, ratio of MHC for human RBC to geometric mean of peptide MIC for methicillin-resistant Staphylococcus aureus 43300; type: toxicity; conditions: human red blood cells (RBC), read-out: TI
# [4] = Therapeutic index, ratio of MHC for human RBC to geometric mean of peptide MIC for Enterococcus faecalis ATCC 29212; type: toxicity; conditions: human red blood cells (RBC), read-out: TI
# [5] = Therapeutic index, ratio of MHC for human RBC to geometric mean of peptide MIC for Staphylococcus aureus ATCC 29213; type: toxicity; conditions: human red blood cells (RBC), read-out: TI
# [6] = Therapeutic index, ratio of MHC for human RBC to geometric mean of peptide MIC for Staphylococcus aureus 11011; type: toxicity; conditions: human red blood cells (RBC), read-out: TI
# [7] = Therapeutic index, ratio of MHC for human RBC to geometric mean of peptide MIC for Salmonella pullorum 7913; type: toxicity; conditions: human red blood cells (RBC), read-out: TI
# [8] = Therapeutic index, ratio of MHC for human RBC to geometric mean of peptide MIC for Salmonella typhimurium 7731; type: toxicity; conditions: human red blood cells (RBC), read-out: TI
# [9] = Therapeutic index, ratio of MHC for human RBC to geometric mean of peptide MIC for Salmonella choleraesuis 503; type: toxicity; conditions: human red blood cells (RBC), read-out: TI
# [10] = Therapeutic index, ratio of MHC for human RBC to geometric mean of peptide MIC for Escherichia coli UB1005; type: toxicity; conditions: human red blood cells (RBC), read-out: TI
# [11] = Therapeutic index, ratio of MHC for human RBC to geometric mean of peptide MIC for Salmonella typhimurium 14028; type: toxicity; conditions: human red blood cells (RBC), read-out: TI
# [12] = Therapeutic index, ratio of MHC for human RBC to geometric mean of peptide MIC for Escherichia coli ATCC 25922; type: toxicity; conditions: human red blood cells (RBC), read-out: TI
# Staphylococcus aureus [13] = assay: Antibacterial activity against Staphylococcus aureus ATCC 29213 after 18 to 24 hrs by CLSI-based broth microdilution method; type: functional; conditions: time hrs 18-24
# Staphylococcus aureus [14] = assay: Antibacterial activity against Staphylococcus aureus 11011 after 18 to 24 hrs by CLSI-based broth microdilution method; type: functional; conditions: time hrs 18-24
# Escherichia coli [15] = assay: Antibacterial activity against Escherichia coli ATCC 25922 after 18 to 24 hrs by CLSI-based broth microdilution method; type: functional; conditions: time hrs 18-24
# Escherichia coli [16] = assay: Antibacterial activity against Escherichia coli UB1005 after 18 to 24 hrs by CLSI-based broth microdilution method; type: functional; conditions: time hrs 18-24
# Salmonella typhimurium [17] = assay: Antibacterial activity against Salmonella typhimurium 14028 after 18 to 24 hrs by CLSI-based broth microdilution method; type: functional, Salmonella enterica subsp. enterica serovar Typhimurium; conditions: Salmonella enterica, time hrs 18-24
# Salmonella typhimurium [18] = assay: Antibacterial activity against Salmonella typhimurium 7731 after 18 to 24 hrs by CLSI-based broth microdilution method; type: functional, Salmonella enterica subsp. enterica serovar Typhimurium; conditions: Salmonella enterica, time hrs 18-24
# [19] = Antibacterial activity against Salmonella pullorum 7913 after 18 to 24 hrs by CLSI-based broth microdilution method; type: functional, Salmonella enterica subsp. enterica serovar Pullorum; conditions: Salmonella enterica, time hrs 18-24
# Salmonella enterica = assay: Antibacterial activity against Salmonella choleraesuis 503 after 18 to 24 hrs by CLSI-based broth microdilution method; type: functional; conditions: time hrs 18-24
# [20] = tested on: Staphylococcus epidermidis; assay: Antibacterial activity against Staphylococcus epidermidis ATCC 12228 after 18 to 24 hrs by CLSI-based broth microdilution method; type: functional; conditions: time hrs 18-24
# Enterococcus faecalis = assay: Antibacterial activity against Enterococcus faecalis ATCC 29212 after 18 to 24 hrs by CLSI-based broth microdilution method; type: functional; conditions: time hrs 18-24
# Staphylococcus aureus [21] = assay: Antibacterial activity against methicillin-resistant Staphylococcus aureus 43300 after 18 to 24 hrs by CLSI-based broth microdilution method; type: functional; conditions: time hrs 18-24
# Streptococcus agalactiae = assay: Antibacterial activity against Streptococcus agalactiae H92 after 18 to 24 hrs by CLSI-based broth microdilution method; type: functional; conditions: time hrs 18-24
# Erythrocyte = assay: Hemolytic activity in human RBC assessed as hemolysis; type: ADME, cell-based
# [22] = Hemolytic activity in human RBC assessed as hemolysis at 1 to 128 uM relative to control; type: ADME, cell-based, Erythrocyte; conditions: human red blood cells (RBC), dose 1-128 µM, read-out: Activity
# [23] = Cytotoxicity against mouse RAW264.7 cells assessed as cell viability at 128 uM by MTT assay relative to control; type: cell-based; conditions: read-out: Activity
# [24] = Cytotoxicity against HEK-293T cells assessed as cell viability at 128 uM by MTT assay relative to control; type: cell-based; conditions: human, read-out: Activity
SMILES,selectivity ratio [1],selectivity ratio [2],selectivity ratio [3],selectivity ratio [4],selectivity ratio [5],selectivity ratio [6],selectivity ratio [7],selectivity ratio [8],selectivity ratio [9],selectivity ratio [10],selectivity ratio [11],selectivity ratio [12],MIC (Staphylococcus aureus [13]) [µM],MIC (Staphylococcus aureus [14]) [µM],MIC (Escherichia coli [15]) [µM],MIC (Escherichia coli [16]) [µM],MIC (Salmonella typhimurium [17]) [µM],MIC (Salmonella typhimurium [18]) [µM],MIC [19] [µM],MIC (Salmonella enterica) [µM],other results
CC(C)[C@H](N)C(=O)N[C@@H](CS)C(=O)N[C@@H](CCCNC(=N)N)C(=O)N[C@@H](CCCCN)C(=O)N1CCC[C@H]1C(=O)N[C@H](C(=O)N[C@H](C(=O)N[C@@H](CS)C(=O)N[C@@H](CCCNC(=N)N)C(=O)N[C@@H](CCCCN)C(=O)N1CCC[C@H]1C(=O)N[C@H](C(=O)N[C@H](C(=O)N[C@@H](CS)C(=O)N[C@@H](CCCNC(=N)N)C(=O)N[C@@H](CCCCN)C(=O)N1CCC[C@H]1C(=O)N[C@H](C(=O)N[C@H](C(=O)N[C@@H](CS)C(=O)N[C@@H](CCCNC(=N)N)C(=O)N[C@@H](CCCCN)C(=O)N1CCC[C@H]1C(=O)N[C@H](C(N)=O)C(C)C)C(C)C)C(C)C)C(C)C)C(C)C)C(C)C)C(C)C (H-VCRKPVVCRKPVVCRKPVVCRKPV-NH2),2,2,2,2,2,2,8,8,8,8,8,8,> 64,> 64,8,8,8,8,64,> 64,MIC [20]: > 64 µM; MIC (Enterococcus faecalis): > 64 µM; MIC (Staphylococcus aureus [21]): > 64 µM; MIC (Streptococcus agalactiae): > 64 µM; MHC (Erythrocyte): > 128 µM; hemolysis at up to 128 µM [22]: < 5%; viability at 128 µM [23]: > 90%; viability at 128 µM [24]: > 90%
CC(C)[C@H](N)C(=O)N[C@@H](CS)C(=O)N[C@@H](CCCNC(=N)N)C(=O)N[C@@H](CCCCN)C(=O)N1CCC[C@H]1C(=O)N[C@H](C(=O)N[C@H](C(=O)N[C@@H](CS)C(=O)N[C@@H](CCCNC(=N)N)C(=O)N[C@@H](CCCCN)C(=O)N1CCC[C@H]1C(=O)N[C@H](C(=O)N[C@H](C(=O)N[C@@H](CS)C(=O)N[C@@H](CCCNC(=N)N)C(=O)N[C@@H](CCCCN)C(=O)N1CCC[C@H]1C(=O)N[C@H](C(=O)N[C@H](C(=O)N[C@@H](CS)C(=O)N[C@@H](CCCNC(=N)N)C(=O)N[C@@H](CCCCN)C(=O)N1CCC[C@H]1C(=O)N[C@H](C(=O)N[C@H](C(=O)N[C@@H](CS)C(=O)N[C@@H](CCCNC(=N)N)C(=O)N[C@@H](CCCCN)C(=O)N1CCC[C@H]1C(=O)N[C@H](C(N)=O)C(C)C)C(C)C)C(C)C)C(C)C)C(C)C)C(C)C)C(C)C)C(C)C)C(C)C (H-VCRKPVVCRKPVVCRKPVVCRKPVVCRKPV-NH2),2,2,2,2,2,2,16,16,16,16,16,16,> 64,> 64,4,4,4,4,16,> 64,MIC [20]: > 64 µM; MIC (Enterococcus faecalis): > 64 µM; MIC (Staphylococcus aureus [21]): > 64 µM; MIC (Streptococcus agalactiae): > 64 µM; MHC (Erythrocyte): > 128 µM; hemolysis at up to 128 µM [22]: < 5%; viability at 128 µM [23]: > 90%; viability at 128 µM [24]: > 90%
